Results published in ChEMBL document CHEMBL1250456, “Synthesis and binding ability of 1,2,3-triazole-based triterpenoid receptors for recognition of Hg(2+) ion” (Bioorg Med Chem Lett, 2010).
Calls of active or inactive are those of the source. The calls are words filed in the database; no cut-off is given here.

What was measured:
[1] = Binding affinity to zinc ion by UV-vis titration analysis
[2] = Binding affinity to magnesium ion by UV-vis titration analysis
[3] = Binding affinity to cadmium ion by UV-vis titration analysis
[4] = Binding affinity to mercury ion by Hildebrand-Benesi equation analysis
[5] = Binding affinity to copper ion by Hildebrand-Benesi equation analysis

| Structure (SMILES) | Activity [1] | Activity [2] | Activity [3] | Ka [4] | Ka [5] |
| --- | --- | --- | --- | --- | --- |
| COC(=O)[C@@]1(C)CC[C@]2(C)CC[C@]3(C)C(=CC(=O)[C@@H]4[C@@]5(C)C[C@H](OC(=O)Cn6cc(COc7ccccc7C=O)nn6)[C@@H](OC(=O)Cn6cc(COc7ccccc7C=O)nn6)C(C)(C)[C@@H]5CC[C@]43C)[C@@H]2C1 | inactive | inactive | inactive | 3 ×10⁴ /M | 1.6 ×10³ /M |
| COC(=O)[C@@]1(C)CC[C@]2(C)CC[C@]3(C)C(=CC(=O)[C@@H]4[C@@]5(C)C[C@H](OC(=O)Cn6cc(COc7ccc8ccccc8c7C=O)nn6)[C@@H](OC(=O)Cn6cc(COc7ccc8ccccc8c7C=O)nn6)C(C)(C)[C@@H]5CC[C@]43C)[C@@H]2C1 | inactive | inactive | inactive | 2.7 ×10⁴ /M | 5 ×10³ /M |
